Source: patent US8557816B2, “Aurora kinase modulators and method of use” (Amgen Inc., priority 2007, dated 2013)

How the values were obtained:
[1] = target: T1, AuroraA-TPX2 (Homo sapiens, UniProt O14965); assay: AuroraA-TPX2 Homogeneous Time Resolved Fluorescent (HTRF) kinase assay; type: biochemical; settings: average; read-out: AurA_IC50_IP (uM Avg)
T1 construct: 20 μL of AuroraA-TPX2 KD GST for a final volume of about 41 μL; GST
T1 sequence (O14965 133-383 limits assumed): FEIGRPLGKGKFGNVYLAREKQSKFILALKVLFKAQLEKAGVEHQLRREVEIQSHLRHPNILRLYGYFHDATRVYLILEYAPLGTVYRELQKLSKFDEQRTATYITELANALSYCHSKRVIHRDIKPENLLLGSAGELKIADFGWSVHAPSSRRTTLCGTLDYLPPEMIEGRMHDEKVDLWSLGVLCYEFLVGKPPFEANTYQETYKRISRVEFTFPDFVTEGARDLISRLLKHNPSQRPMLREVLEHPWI
T1 sequence (Q9ULW0 1-43 partner limits assumed): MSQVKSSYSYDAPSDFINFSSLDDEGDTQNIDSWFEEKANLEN
How it was run: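 HTRF read-out (Eu 615 nm to APC 655 nm) of phosphorylated biotin-PLK, detected with 0.02 nM europium anti-phosphoPLK antibody and 0.0005 mg/mL SA-APC after overnight equilibration.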

[2] = target: T2, AuroraB (Homo sapiens, UniProt Q96GD4); assay: AuroraB Homogeneous Time Resolved Fluorescent (HTRF) kinase assay; type: biochemical; settings: average; read-out: AurB_IC50_IP (uM Avg)
T2 construct: 20 μL of AuroraB FL H is for a final volume of 41 μL; His
How it was run: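 Full-length His-tagged kinase phosphorylates biotinylated Histone H3 (0.1 μM final) with ATP in pH 7.5 HEPES containing MgCl, MnCl, DTT and BSA for about 90 min. EDTA-containing detection mix with SA-APC and Eu-anti-phosphoHistone H3 then equilibrated about 60 min; HTRF read with 320 nm excitation, emissions 615/655 nm.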

T2 sequence (Q96GD4 whole entry): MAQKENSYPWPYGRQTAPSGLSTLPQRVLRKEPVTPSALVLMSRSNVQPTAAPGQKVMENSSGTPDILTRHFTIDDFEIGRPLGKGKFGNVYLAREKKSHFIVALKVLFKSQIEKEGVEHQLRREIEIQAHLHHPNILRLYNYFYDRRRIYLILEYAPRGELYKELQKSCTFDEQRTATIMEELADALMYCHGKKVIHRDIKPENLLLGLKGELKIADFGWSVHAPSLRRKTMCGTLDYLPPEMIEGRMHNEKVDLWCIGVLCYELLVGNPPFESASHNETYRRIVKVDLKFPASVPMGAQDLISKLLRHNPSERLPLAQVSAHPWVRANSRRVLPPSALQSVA

Compound	IC50 [1]	IC50 [2]
COc1cnc2c(Sc3ccc(Nc4nnc(C5CC5)c5ccccc45)cc3)ccnc2c1 [compound 541]	0.393 µM	0.025 µM
COc1cnc2c(Oc3ccc(Nc4nncc5ccccc45)cc3)ccnc2c1 [compound 542, N-(4-((7-methoxy-1,5-naphthyridin-4-yl)oxy)phenyl)-1-phthalazinamine]	0.319 µM	0.041 µM
COc1cnc2c(Oc3ccc(Nc4nnc(C5CC5)c5ccccc45)cc3)ccnc2c1 [compound 543]	0.581 µM	0.044 µM
COc1cnc2c(Oc3ccc(Nc4nnc(-c5ccc(C)c(N)c5)c5cc(F)c(F)cc45)cc3)ccnc2c1 [compound 545]	0.085 µM	0.02 µM
COc1cnc2c(Oc3ccc(Nc4nnc(-c5ccccc5Cl)c5ccccc45)cc3)ccnc2c1 [compound 546]	0.723 µM	0.135 µM
COc1cnc2c(Sc3ccc(Nc4nncc5ccccc45)cc3)ccnc2c1 [compound 547, N-(4-((7-methoxy-1,5-naphthyridin-4-yl)sulfanyl)phenyl)-1-phthalazinamine]	0.335 µM	0.02 µM
COc1ccc2nccc(Sc3ccc(Nc4nnc(N5CCCCC5)c5ccccc45)cc3)c2n1 [compound 548]	0.27 µM	0.031 µM
COc1ccc2nccc(Sc3ccc(Nc4nnc(-c5cc(C)cs5)c5ccccc45)cc3)c2n1 [compound 549]	0.098 µM	0.064 µM
COc1ccc2nccc(Sc3ccc(Nc4nnc(-c5ccc(Cl)cn5)c5ccccc45)cc3)c2n1 [compound 550]	0.107 µM	0.022 µM
COc1ccc2nccc(Oc3ccc(Nc4nnc(-c5ccc6c(c5)OCO6)c5ccccc45)cc3)c2n1 [compound 551]	0.096 µM	0.017 µM
COc1ccc2nccc(Oc3ccc(Nc4nnc(-c5cc(C)cs5)c5ccccc45)cc3)c2n1 [compound 552]	0.056 µM	0.036 µM
Cc1ccc(-c2nnc(Nc3ccc(Sc4ccnc5cccnc45)cc3)c3ccccc23)cn1 [compound 553]	0.042 µM	0.005 µM
COc1ccc2nccc(Oc3ccc(Nc4nnc(-c5ccc(C)cn5)c5ccccc45)cc3)c2c1 [compound 554]	0.172 µM	0.011 µM
COc1cnc2c(Sc3ccc(Nc4nnc(N5CCCC(C)(C)C5)c5ccccc45)cc3)ccnc2c1 [compound 555]	0.102 µM	0.105 µM
COc1cnc2c(Sc3ccc(Nc4nnc(N5CC(C)CC(C)C5)c5ccccc45)cc3)ccnc2c1 (stereo not drawn) [compound 556]	0.116 µM	0.159 µM
COc1cnc2c(Sc3ccc(Nc4nnc(N5CCC(F)CC5)c5ccccc45)cc3)ccnc2c1 [compound 557]	0.161 µM	0.059 µM
COc1cnc2c(Sc3ccc(Nc4nnc(C(C)C)c5ccccc45)cc3)ccnc2c1 [compound 558]	0.378 µM	0.041 µM
Cc1cc2nccc(Sc3ccc(Nc4nnc(-c5ccc(Cl)cc5)c5ccccc45)cc3)c2s1 [compound 559]	0.168 µM	0.098 µM
Cc1cc2nccc(Sc3ccc(Nc4nnc(-c5ccc(Cl)cn5)c5ccccc45)cc3)c2s1 [compound 560]	0.416 µM	0.081 µM
c1ccc(-c2nnc(Nc3ccc(Sc4ncnc5ccccc45)cc3)c3ccccc23)cc1 [compound 561]	> 25 µM	> 5 µM
Clc1ccc(-c2nnc(Nc3ccc(Oc4ncnc5ccccc45)cc3)c3ccccc23)cc1 [compound 562]	0.107 µM	0.006 µM
COc1cnc2c(Sc3ccc(Nc4nnc(N5CCN6CCC[C@H]6C5)c5ccccc45)cc3)ccnc2c1 [compound 563]	0.023 µM	0.009 µM
COc1ccc2ncnc(Oc3ccc(Nc4nnc(-c5ccc(Cl)cc5)c5ccccc45)cc3)c2c1 [compound 564]	> 25 µM	0.129 µM

Compound	IC50 [1]	IC50 [2]
COc1ccc2ncnc(Oc3ccc(Nc4nnc(-c5cc(C)cs5)c5ccccc45)cc3)c2c1 [compound 565]	0.686 µM	0.108 µM
COc1cnc2c(Oc3ccc(Nc4nnc(-c5ccc(Cl)cc5)c5ccccc45)cc3OC)ccnc2c1 [compound 566]	0.093 µM	0.043 µM
COc1cnc2c(Oc3ccc(Nc4nnc(-c5cc(C)cs5)c5ccccc45)cc3OC)ccnc2c1 [compound 567]	0.092 µM	0.041 µM
Cc1csc(-c2nnc(Nc3ccc(Oc4ncnc5ccccc45)cc3)c3ccccc23)c1 [compound 568]	0.233 µM	0.011 µM
O=c1ccc2nccc(Oc3ccc(Nc4nnc(-c5ccc(Cl)cc5)c5ccccc45)cc3)c2[nH]1 [compound 569]	0.128 µM	0.013 µM
Clc1ccc(-c2nnc(Nc3ccc(Sc4ccnc5c4CCCN5)cc3)c3ccccc23)cc1 [compound 570]	0.05 µM	0.008 µM
FC(F)(F)Oc1ccc2nccc(Sc3ccc(Nc4nnc(-c5ccccc5)c5ccccc45)cc3)c2c1 [compound 571]	> 25 µM	> 25 µM
Cc1csc(-c2nnc(Nc3ccc(Sc4ccnc5ccc(OC(F)(F)F)cc45)cc3)c3ccccc23)c1 [compound 572]	> 25 µM	> 25 µM
COc1cc(OC)c2c(Oc3ccc(Nc4nnc(-c5cc(C)cs5)c5ccccc45)cc3)ncnc2c1 [compound 573]	0.042 µM	0.114 µM
FC(F)(F)Oc1ccc2nccc(Oc3ccc(Nc4nnc(-c5ccc(Cl)cc5)c5ccccc45)cc3)c2c1 [compound 574]	0.752 µM	0.365 µM
Cc1csc(-c2nnc(Nc3ccc(Oc4ccnc5ccc(OC(F)(F)F)cc45)cc3)c3ccccc23)c1 [compound 575]	0.226 µM	0.81 µM
COc1cnc2c(Sc3ccc(Nc4nnc(N5CCn6ccnc6C5)c5ccccc45)cc3)ccnc2c1 [compound 576]	0.077 µM	0.026 µM
c1ccc(-c2nnc(Nc3ccc(Sc4ccnc5c4CCCN5)cc3)c3ccccc23)cc1 [compound 577]	0.428 µM	0.021 µM
COc1cnc2c(Sc3ccc(Nc4nnc(N5CCc6sccc6C5)c5ccccc45)cc3)ccnc2c1 [compound 578]	0.033 µM	0.081 µM
COc1cnc2c(Sc3ccc(Nc4nnc(N5CCn6ncnc6C5)c5ccccc45)cc3)ccnc2c1 [compound 579]	0.228 µM	0.032 µM
COc1cnc2c(Sc3ccc(Nc4nnc(N5CCN6CCCC[C@@H]6C5)c5ccccc45)cc3)ccnc2c1 [compound 580]	0.023 µM	0.005 µM
COc1cc(OC)c2c(Sc3ccc(Nc4nnc(-c5ccccc5)c5ccccc45)cc3)ncnc2c1 [compound 581]	1.13 µM	0.236 µM
COc1cnc2c(Sc3ccc(Nc4nnc(N5CCN6CCC[C@@H]6C5)c5ccccc45)cc3)ccnc2c1 [compound 582]	0.029 µM	0.006 µM
COc1cnc2c(Sc3ccc(Nc4nnc(-c5ccc(OC)nc5)c5ccccc45)cc3)ccnc2c1 [compound 583]	0.028 µM	0.008 µM
COc1cnc2c(Sc3ccc(Nc4nnc(N5CCN6CCCC[C@@H]6C5)c5ccccc45)cc3)ccnc2c1 [compound 584]	0.009 µM	0.005 µM
COc1cnc2c(Sc3ccc(Nc4nnc(N5CCN6CCCC[C@H]6C5)c5ccccc45)cc3)ccnc2c1 [compound 585]	0.036 µM	0.006 µM
COc1cnc2c(Oc3ccc(Nc4nnc(N5CC[C@H]6CCCC[C@@H]6C5)c5ccccc45)cc3)ccnc2c1 [compound 586]	0.124 µM	0.042 µM
